Blank lines part the entries; values can stand above or below the molecule they belong to. The source made the active and inactive calls. No cut-off for these calls is given here.
Experiments:
[1] = Displacement of [125I]-IMPY from amyloid beta (1 to 42) after 2 hrs by gamma counting
[2] = organism: Mus musculus; assay: Binding affinity to beta-amyloid in APP/PS1 transgenic C57 mouse brain at 5 uCi/[…] after 1 hr by autoradiography; assay type: tissue-based; conditions: tested as the 125I-labelled form
[3] = system: Blood; assay: Biodistribution in ddY mouse blood at 0.9 uCi, iv after 2 mins by gamma counting; assay type: ADME, organism-based; conditions: in vivo
[4] = system: Brain; assay: Biodistribution in ddY mouse brain at 0.9 uCi, iv after 2 mins by gamma counting; assay type: ADME, organism-based; conditions: in vivo
[5] = system: Heart; assay: Biodistribution in ddY mouse heart at 0.9 uCi, iv after 2 mins by gamma counting; assay type: ADME, organism-based; conditions: in vivo
[6] = system: Liver; assay: Biodistribution in ddY mouse liver at 0.9 uCi, iv after 2 mins by gamma counting; assay type: ADME, organism-based; conditions: in vivo
[7] = system: Spleen; assay: Biodistribution in ddY mouse spleen at 0.9 uCi, iv after 2 mins by gamma counting; assay type: ADME, organism-based; conditions: in vivo
[8] = system: Lung; assay: Biodistribution in ddY mouse lung at 0.9 uCi, iv after 2 mins by gamma counting; assay type: ADME, organism-based; conditions: in vivo
[9] = system: Kidney; assay: Biodistribution in ddY mouse kidney at 0.9 uCi, iv after 2 mins by gamma counting; assay type: ADME, organism-based; conditions: in vivo
[10] = system: Stomach; assay: Biodistribution in ddY mouse stomach assessed per organ at 0.9 uCi, iv after 2 mins by gamma counting; assay type: ADME, organism-based; conditions: in vivo
[11] = system: Intestine; assay: Biodistribution in ddY mouse intestine at 0.9 uCi, iv after 2 mins by gamma counting; assay type: ADME, organism-based; conditions: in vivo
[12] = system: Mus musculus; assay: Biodistribution in ddY mouse thyroid assessed per organ at 0.9 uCi, iv after 2 mins by gamma counting; assay type: ADME, organism-based, Thyroid gland; conditions: in vivo
[13] = system: Blood; assay: Biodistribution in ddY mouse blood at 0.9 uCi, iv after 15 mins by gamma counting; assay type: ADME, organism-based; conditions: in vivo, 0.25 h
[14] = system: Brain; assay: Biodistribution in ddY mouse brain at 0.9 uCi, iv after 15 mins by gamma counting; assay type: ADME, organism-based; conditions: in vivo, 0.25 h
[15] = system: Heart; assay: Biodistribution in ddY mouse heart at 0.9 uCi, iv after 15 mins by gamma counting; assay type: ADME, organism-based; conditions: in vivo, 0.25 h
[16] = system: Liver; assay: Biodistribution in ddY mouse liver at 0.9 uCi, iv after 15 mins by gamma counting; assay type: ADME, organism-based; conditions: in vivo, 0.25 h
[17] = system: Spleen; assay: Biodistribution in ddY mouse spleen at 0.9 uCi, iv after 15 mins by gamma counting; assay type: ADME, organism-based; conditions: in vivo, 0.25 h
[18] = system: Lung; assay: Biodistribution in ddY mouse lung at 0.9 uCi, iv after 15 mins by gamma counting; assay type: ADME, organism-based; conditions: in vivo, 0.25 h
[19] = system: Kidney; assay: Biodistribution in ddY mouse kidney at 0.9 uCi, iv after 15 mins by gamma counting; assay type: ADME, organism-based; conditions: in vivo, 0.25 h
[20] = system: Stomach; assay: Biodistribution in ddY mouse stomach assessed per organ at 0.9 uCi, iv after 15 mins by gamma counting; assay type: ADME, organism-based; conditions: in vivo, 0.25 h
[21] = system: Intestine; assay: Biodistribution in ddY mouse intestine at 0.9 uCi, iv after 15 mins by gamma counting; assay type: ADME, organism-based; conditions: in vivo, 0.25 h
[22] = system: Mus musculus; assay: Biodistribution in ddY mouse thyroid assessed per organ at 0.9 uCi, iv after 15 mins by gamma counting; assay type: ADME, organism-based, Thyroid gland; conditions: in vivo, 0.25 h
[23] = system: Blood; assay: Biodistribution in ddY mouse blood at 0.9 uCi, iv after 30 mins by gamma counting; assay type: ADME, organism-based; conditions: in vivo, 0.5 h
[24] = system: Brain; assay: Biodistribution in ddY mouse brain at 0.9 uCi, iv after 30 mins by gamma counting; assay type: ADME, organism-based; conditions: in vivo, 0.5 h
[25] = system: Heart; assay: Biodistribution in ddY mouse heart at 0.9 uCi, iv after 30 mins by gamma counting; assay type: ADME, organism-based; conditions: in vivo, 0.5 h
[26] = system: Liver; assay: Biodistribution in ddY mouse liver at 0.9 uCi, iv after 30 mins by gamma counting; assay type: ADME, organism-based; conditions: in vivo, 0.5 h
[27] = system: Spleen; assay: Biodistribution in ddY mouse spleen at 0.9 uCi, iv after 30 mins by gamma counting; assay type: ADME, organism-based; conditions: in vivo, 0.5 h
[28] = system: Lung; assay: Biodistribution in ddY mouse lung at 0.9 uCi, iv after 30 mins by gamma counting; assay type: ADME, organism-based; conditions: in vivo, 0.5 h
[29] = system: Kidney; assay: Biodistribution in ddY mouse kidney at 0.9 uCi, iv after 30 mins by gamma counting; assay type: ADME, organism-based; conditions: in vivo, 0.5 h
[30] = system: Stomach; assay: Biodistribution in ddY mouse stomach assessed per organ at 0.9 uCi, iv after 30 mins by gamma counting; assay type: ADME, organism-based; conditions: in vivo, 0.5 h
[31] = system: Intestine; assay: Biodistribution in ddY mouse intestine at 0.9 uCi, iv after 30 mins by gamma counting; assay type: ADME, organism-based; conditions: in vivo, 0.5 h
[32] = system: Mus musculus; assay: Biodistribution in ddY mouse thyroid assessed per organ at 0.9 uCi, iv after 30 mins by gamma counting; assay type: ADME, organism-based, Thyroid gland; conditions: in vivo, 0.5 h
[33] = system: Blood; assay: Biodistribution in ddY mouse blood at 0.9 uCi, iv after 60 mins by gamma counting; assay type: ADME, organism-based; conditions: in vivo, 1 h
[34] = system: Brain; assay: Biodistribution in ddY mouse brain at 0.9 uCi, iv after 60 mins by gamma counting; assay type: ADME, organism-based; conditions: in vivo, 1 h
[35] = system: Heart; assay: Biodistribution in ddY mouse heart at 0.9 uCi, iv after 60 mins by gamma counting; assay type: ADME, organism-based; conditions: in vivo, 1 h
[36] = system: Liver; assay: Biodistribution in ddY mouse liver at 0.9 uCi, iv after 60 mins by gamma counting; assay type: ADME, organism-based; conditions: in vivo, 1 h
[37] = system: Spleen; assay: Biodistribution in ddY mouse spleen at 0.9 uCi, iv after 60 mins by gamma counting; assay type: ADME, organism-based; conditions: in vivo, 1 h
[38] = system: Lung; assay: Biodistribution in ddY mouse lung at 0.9 uCi, iv after 60 mins by gamma counting; assay type: ADME, organism-based; conditions: in vivo, 1 h
[39] = system: Kidney; assay: Biodistribution in ddY mouse kidney at 0.9 uCi, iv after 60 mins by gamma counting; assay type: ADME, organism-based; conditions: in vivo, 1 h
[40] = system: Stomach; assay: Biodistribution in ddY mouse stomach assessed per organ at 0.9 uCi, iv after 60 mins by gamma counting; assay type: ADME, organism-based; conditions: in vivo, 1 h
[41] = system: Intestine; assay: Biodistribution in ddY mouse intestine at 0.9 uCi, iv after 60 mins by gamma counting; assay type: ADME, organism-based; conditions: in vivo, 1 h
[42] = system: Mus musculus; assay: Biodistribution in ddY mouse thyroid assessed per organ at 0.9 uCi, iv after 60 mins by gamma counting; assay type: ADME, organism-based, Thyroid gland; conditions: in vivo, 1 h
[43] = system: Blood; assay: Biodistribution in ddY mouse blood at 0.9 uCi, iv after 120 mins by gamma counting; assay type: ADME, organism-based; conditions: in vivo, 2 h
[44] = system: Brain; assay: Biodistribution in ddY mouse brain at 0.9 uCi, iv after 120 mins by gamma counting; assay type: ADME, organism-based; conditions: in vivo, 2 h
[45] = system: Heart; assay: Biodistribution in ddY mouse heart at 0.9 uCi, iv after 120 mins by gamma counting; assay type: ADME, organism-based; conditions: in vivo, 2 h
[46] = system: Liver; assay: Biodistribution in ddY mouse liver at 0.9 uCi, iv after 120 mins by gamma counting; assay type: ADME, organism-based; conditions: in vivo, 2 h
[47] = system: Spleen; assay: Biodistribution in ddY mouse spleen at 0.9 uCi, iv after 120 mins by gamma counting; assay type: ADME, organism-based; conditions: in vivo, 2 h
[48] = system: Lung; assay: Biodistribution in ddY mouse lung at 0.9 uCi, iv after 120 mins by gamma counting; assay type: ADME, organism-based; conditions: in vivo, 2 h
[49] = system: Kidney; assay: Biodistribution in ddY mouse kidney at 0.9 uCi, iv after 120 mins by gamma counting; assay type: ADME, organism-based; conditions: in vivo, 2 h
[50] = system: Stomach; assay: Biodistribution in ddY mouse stomach assessed per organ at 0.9 uCi, iv after 120 mins by gamma counting; assay type: ADME, organism-based; conditions: in vivo, 2 h
[51] = system: Intestine; assay: Biodistribution in ddY mouse intestine at 0.9 uCi, iv after 120 mins by gamma counting; assay type: ADME, organism-based; conditions: in vivo, 2 h
[52] = system: Mus musculus; assay: Biodistribution in ddY mouse thyroid assessed per organ at 0.9 uCi, iv after 120 mins by gamma counting; assay type: ADME, organism-based, Thyroid gland; conditions: in vivo, 2 h
[53] = system: Brain; assay: Ratio of drug level in brain after 2 mins to drug level in brain after 30 mins ddY mouse at 0.9 uCi, iv; assay type: ADME, organism-based; conditions: in vivo
[54] = Lipophilicity, log D of the compound; assay type: physicochemical; conditions: octanol/water

- Ki [1]: 44.9 nM
SMILES: CNc1ccc(C(=O)c2cc3cc(Br)ccc3o2)cc1

- Ki [1]: > 1000 nM
SMILES: O=C(c1ccc([N+](=O)[O-])cc1)c1cc2cc(I)ccc2o1

- Ki [1]: > 1000 nM
SMILES: O=C(c1ccc([N+](=O)[O-])cc1)c1cc2cc(Br)ccc2o1

Second part, the molecule before the results:

SMILES: Nc1ccc(C(=O)c2cc3cc(Br)ccc3o2)cc1
- Ki [1]: 157 nM

SMILES: CN(C)c1ccc(C(=O)c2cc3cc(I)ccc3o2)cc1
- Ki [1]: 6.6 nM
- Activity [2]: Active

SMILES: CNc1ccc(C(=O)c2cc3cc(I)ccc3o2)cc1
- Ki [1]: 34.5 nM
- Activity [2]: Active

SMILES: CN(C)c1ccc(C(=O)c2cc3cc([125I])ccc3o2)cc1
- Drug uptake [3]: 2.56 % ID/g
- Drug uptake [4]: 3.53 % ID/g
- Drug uptake [5]: 7.01 % ID/g
- Drug uptake [6]: 16.19 % ID/g
- Drug uptake [7]: 2.75 % ID/g
- Drug uptake [8]: 7.34 % ID/g
- Drug uptake [9]: 10.26 % ID/g
- Drug uptake [10]: 0.95 %ID
- Drug uptake [11]: 3.14 % ID/g
- Drug uptake [12]: 0.02 %ID
- Drug uptake [13]: 1.16 % ID/g
- Drug uptake [14]: 2.38 % ID/g
- Drug uptake [15]: 1.45 % ID/g
- Drug uptake [16]: 11 % ID/g
- Drug uptake [17]: 1.59 % ID/g
- Drug uptake [18]: 2.2 % ID/g
- Drug uptake [19]: 3.84 % ID/g
- Drug uptake [20]: 1.54 %ID
- Drug uptake [21]: 11.77 % ID/g
- Drug uptake [22]: 0.05 %ID
- Drug uptake [23]: 1.07 % ID/g
- Drug uptake [24]: 1.51 % ID/g
- Drug uptake [25]: 1.15 % ID/g
- Drug uptake [26]: 6.7 % ID/g
- Drug uptake [27]: 0.94 % ID/g
- Drug uptake [28]: 1.61 % ID/g
- Drug uptake [29]: 4.28 % ID/g
- Drug uptake [30]: 2.6 %ID
- Drug uptake [31]: 21.81 % ID/g
- Drug uptake [32]: 0.18 %ID
- Drug uptake [33]: 0.82 % ID/g
- Drug uptake [34]: 0.87 % ID/g
- Drug uptake [35]: 0.74 % ID/g
- Drug uptake [36]: 5.09 % ID/g
- Drug uptake [37]: 0.66 % ID/g
- Drug uptake [38]: 0.94 % ID/g
- Drug uptake [39]: 1.9 % ID/g
- Drug uptake [40]: 3.1 %ID
- Drug uptake [41]: 20.88 % ID/g
- Drug uptake [42]: 0.46 %ID
- Drug uptake [43]: 0.63 % ID/g
- Drug uptake [44]: 0.41 % ID/g
- Drug uptake [45]: 0.49 % ID/g
- Drug uptake [46]: 3.59 % ID/g
- Drug uptake [47]: 0.43 % ID/g
- Drug uptake [48]: 0.79 % ID/g
- Drug uptake [49]: 1.64 % ID/g
- Drug uptake [50]: 3.76 %ID
- Drug uptake [51]: 25.19 % ID/g
- Drug uptake [52]: 0.8 %ID
- Ratio [53]: 2.34
- logD [54]: 4.4

SMILES: Nc1ccc(C(=O)c2cc3cc(I)ccc3o2)cc1
- Ki [1]: 133 nM

SMILES: CN(C)c1ccc(C(=O)c2cc3cc(Br)ccc3o2)cc1
- Ki [1]: 8.8 nM

From ChEMBL document CHEMBL1795303, “Synthesis and evaluation of benzofuran-2-yl(phenyl)methanone derivatives as ligands for β-amyloid plaques” (Bioorg Med Chem, 2011)
